Values of other authors in patent publication US10058543B2, “Treatment of familial exudative vitreoretinopathy through S1PR2 inhibition” (DALHOUSIE UNIVERSITY, priority 2014, dated 2018).
“Also recorded” adds a separate entry of the source.

Legend:
S1PR2 = S1PR2 (Homo sapiens, UniProt O95136)
VEGF = settings: ocular injection, FEVR patient, one study
Chain of VEGF (P15692 207-311 limits assumed): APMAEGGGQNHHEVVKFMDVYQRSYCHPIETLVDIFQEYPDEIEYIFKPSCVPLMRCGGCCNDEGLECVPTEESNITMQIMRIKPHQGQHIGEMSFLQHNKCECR

Chain of S1PR2 (O95136 whole entry): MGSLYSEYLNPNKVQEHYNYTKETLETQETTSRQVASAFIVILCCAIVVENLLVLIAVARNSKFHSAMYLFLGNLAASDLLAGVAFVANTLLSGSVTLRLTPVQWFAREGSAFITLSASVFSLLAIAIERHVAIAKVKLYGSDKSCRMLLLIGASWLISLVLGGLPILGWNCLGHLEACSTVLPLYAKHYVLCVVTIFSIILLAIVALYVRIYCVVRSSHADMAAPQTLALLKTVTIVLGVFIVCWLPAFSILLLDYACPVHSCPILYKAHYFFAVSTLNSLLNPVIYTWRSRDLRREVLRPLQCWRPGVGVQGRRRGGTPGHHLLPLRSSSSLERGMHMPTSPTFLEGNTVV

Molecule: Cc1nn(C)c2nc(NNC(=O)Nc3cc(Cl)nc(Cl)c3)cc(C(C)C)c12 [JTE-103, 1-(2,6-dichloro-4-pyridyl)-3-[(4-isopropyl-1,3-dimethyl-pyrazolo[3,4-n]pyridin-6-yl)amino]urea]
- specificity for S1PR2 versus other S1PRs (S1PR2): 10 fold
- affinity (S1PR2; S1PR2, stated in words): uM affinity; also recorded: low affinity
- specificity for S1PR2 (S1PR2; stated in words): some specificity for S1PR2

Molecule: bevacizumab: monoclonal antibody that inhibits VEGF function originally developed to treat cancers
- retinal hemorrhage and neovascularization (VEGF): improvement of retinal hemorrhage and neovascularization
